Reference: patent EP4667483A1, “HUMAN TRANSFERRIN RECEPTOR-BINDING PEPTIDE” (JCR Pharmaceuticals Co., Ltd., priority 2023, dated 2024)
Numbered stars: 1 amine (or outer) side, 2 acyl side, 3 side chain; on linkers, the order of the positions; unused ones are H or OH. Bridge positions count the residues as written; N and C are the ends. Square brackets hold non-standard residues; d marks the D form. Side chains are listed from the residue outwards. Peptide text beside a SMILES is read from it. * marks the point of attachment. Trp(1-CH2COOH) = N[C@@H](Cc1cn(CC(=O)O)c2ccccc12)C(=O)O; CH2CON(CH2CH2)2NCH2COOH = O=C(O)CN1CCN(C(=O)C*)CC1; Nle(6-morpholino) = N[C@@H](CCCCN1CCOCC1)C(=O)O; Phe(3-COOH) = N[C@@H](Cc1cccc(C(=O)O)c1)C(=O)O; NH(CH2CH2O)8Me = COCCOCCOCCOCCOCCOCCOCCOCCN*; NMePhe(3-Cl) = CN[C@@H](Cc1cccc(Cl)c1)C(=O)O; Piperazinyl(4-CH2COOH) = O=C(O)CN1CCN(*)CC1; NMeY = CN[C@@H](Cc1ccc(O)cc1)C(=O)O; 4Pal = N[C@@H](Cc1ccncc1)C(=O)O; PEG4 = NCCOCCOCCOCCOCCC(=O)O; CO = O=C([*:1])[*:2]

What was measured:
[1] = biological target: T1, human transferrin receptor (hTfR) (Homo sapiens, UniProt P02786); test: SPR measurement under pH 7.4 conditions (Biacore T200, CM3 chip, hTfR captured by His Tag antibody); assay type: binding; settings: pH 7.4, single-cycle kinetics; read-out: hTfR SPR pH7.4 KD
[2] = biological target: T1, human transferrin receptor (hTfR); test: SPR measurement under pH 6.0 conditions (Biacore T200, NTA chip, immobilized hTfR); assay type: binding; settings: pH 6.0, single-cycle kinetics; read-out: hTfR SPR pH6.0 KD

T1 sequence (P02786 whole entry): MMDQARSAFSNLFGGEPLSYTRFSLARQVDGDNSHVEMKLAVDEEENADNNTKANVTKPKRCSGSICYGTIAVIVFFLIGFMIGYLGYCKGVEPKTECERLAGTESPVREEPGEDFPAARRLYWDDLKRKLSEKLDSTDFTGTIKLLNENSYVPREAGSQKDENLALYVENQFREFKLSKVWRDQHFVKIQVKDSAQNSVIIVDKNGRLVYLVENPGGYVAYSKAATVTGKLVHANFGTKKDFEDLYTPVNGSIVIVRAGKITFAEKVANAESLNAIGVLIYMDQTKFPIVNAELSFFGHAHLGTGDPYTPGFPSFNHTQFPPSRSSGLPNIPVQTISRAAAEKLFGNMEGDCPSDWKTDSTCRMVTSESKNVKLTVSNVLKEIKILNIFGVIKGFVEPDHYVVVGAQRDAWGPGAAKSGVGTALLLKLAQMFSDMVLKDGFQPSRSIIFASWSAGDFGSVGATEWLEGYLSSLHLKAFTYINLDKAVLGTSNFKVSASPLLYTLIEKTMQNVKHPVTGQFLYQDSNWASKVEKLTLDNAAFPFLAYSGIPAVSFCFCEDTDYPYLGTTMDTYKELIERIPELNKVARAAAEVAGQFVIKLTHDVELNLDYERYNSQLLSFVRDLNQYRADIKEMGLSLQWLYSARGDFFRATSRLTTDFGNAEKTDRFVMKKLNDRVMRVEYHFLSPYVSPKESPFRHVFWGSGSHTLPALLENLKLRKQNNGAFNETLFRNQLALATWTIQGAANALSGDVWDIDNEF

| Kd [1] | Kd [2] | Structure (SMILES) |
| --- | --- | --- |
| 0.00243 µM | 0.0171 µM | CC[C@H](C)[C@@H]1NC(=O)[C@H](Cc2ccc(OCC(=O)N3CCN(CC(=O)O)CC3)cc2)NC(=O)[C@H](Cc2ccc(O)cc2)NC(=O)[C@H](CC(N)=O)NC(=O)[C@H](Cc2c[nH]c3ccccc23)NC(=O)[C@H](C(C)C)NC(=O)[C@H](Cc2cccc(Cl)c2)N(C)C(=O)[C@H](C(C)C)NC(=O)[C@H](C)NC(=O)CSC[C@@H](C(=O)NCCOCCOCCOCCOCCC(N)=O)NC(=O)[C@H](Cc2ccc(O)cc2)N(C)C(=O)[C@H](Cc2cccc(C(=O)O)c2)NC(=O)[C@H](CCCCN2CCOCC2)NC(=O)[C@H](CCC(=O)NCCOCCOCCOCCOCCOCCOCCOCCOC)NC(=O)[C@H]([C@@H](C)CC)NC1=O [compound 31] ({CH2CO}-AV[NMePhe(3-Cl)]VWNYY(CH2CON(CH2CH2)2NCH2COOH)IIE(NH(CH2CH2O)8Me)[Nle(6-morpholino)][Phe(3-COOH)][NMeY]C[PEG4]-NH2; thioether N-15) |
| 0.00218 µM | 0.027 µM | CC[C@H](C)[C@@H]1NC(=O)[C@H](Cc2ccc(OCC(=O)N3CCN(CC(=O)O)CC3)cc2)NC(=O)[C@H](Cc2ccc(O)cc2)NC(=O)[C@H](CC(N)=O)NC(=O)[C@H](Cc2cn(CC(=O)O)c3ccccc23)NC(=O)[C@H](C(C)C)NC(=O)[C@H](Cc2cccc(Cl)c2)N(C)C(=O)[C@H](C(C)C)NC(=O)[C@H](C)NC(=O)CSC[C@@H](C(=O)NCCOCCOCCOCCOCCC(N)=O)NC(=O)[C@H](Cc2ccc(O)cc2)N(C)C(=O)[C@H](Cc2cccc(C(=O)O)c2)NC(=O)[C@H](CCCCN2CCOCC2)NC(=O)[C@H](CCCCN2CCOCC2)NC(=O)[C@H]([C@@H](C)CC)NC1=O [compound 32] ({CH2CO}-AV[NMePhe(3-Cl)]V[Trp(1-CH2COOH)]NYY(CH2CON(CH2CH2)2NCH2COOH)II[Nle(6-morpholino)][Nle(6-morpholino)][Phe(3-COOH)][NMeY]C[PEG4]-NH2; thioether N-15) |
| 0.0085 µM | 0.0221 µM | CC[C@H](C)[C@@H]1NC(=O)[C@H](Cc2ccc(OCC(=O)N3CCN(CC(=O)O)CC3)cc2)NC(=O)[C@H](Cc2ccc(O)cc2)NC(=O)[C@H](CC(N)=O)NC(=O)[C@H](Cc2cn(CC(=O)O)c3ccccc23)NC(=O)[C@H](C(C)C)NC(=O)[C@H](Cc2cccc(Cl)c2)N(C)C(=O)[C@H](C(C)C)NC(=O)[C@H](C)NC(=O)CSC[C@@H](C(=O)NCCOCCOCCOCCOCCC(N)=O)NC(=O)[C@H](Cc2ccc(O)cc2)N(C)C(=O)[C@H](Cc2ccncc2)NC(=O)[C@H](CCCCN2CCOCC2)NC(=O)[C@H](CCCCNC(=O)N2CCN(CC(=O)O)CC2)NC(=O)[C@H]([C@@H](C)CC)NC1=O [compound 33] ({CH2CO}-AV[NMePhe(3-Cl)]V[Trp(1-CH2COOH)]NYY(CH2CON(CH2CH2)2NCH2COOH)IIK([CO-Piperazinyl(4-CH2COOH)])[Nle(6-morpholino)][4Pal][NMeY]C[PEG4]-NH2; thioether N-15) |
| 0.00522 µM | 0.0149 µM | CC[C@H](C)[C@@H]1NC(=O)[C@H](Cc2ccc(OCC(=O)N3CCN(CC(=O)O)CC3)cc2)NC(=O)[C@H](Cc2ccc(O)cc2)NC(=O)[C@H](CC(N)=O)NC(=O)[C@H](Cc2cn(CC(=O)O)c3ccccc23)NC(=O)[C@H](C(C)C)NC(=O)[C@H](Cc2cccc(Cl)c2)N(C)C(=O)[C@H](C(C)C)NC(=O)[C@H](C)NC(=O)CSC[C@@H](C(=O)NCCOCCOCCOCCOCCC(N)=O)NC(=O)[C@H](Cc2ccc(O)cc2)N(C)C(=O)[C@H](Cc2ccncc2)NC(=O)[C@H](CCCNC(=N)N)NC(=O)[C@H](CCCCNC(=O)N2CCN(CC(=O)O)CC2)NC(=O)[C@H]([C@@H](C)CC)NC1=O [compound 34] |
